Source: US8481750B2 (Boehringer Ingelheim International GmbH, priority 2009, dated 2013)

Target: LFA-1 binding to ICAM-1 (Homo sapiens, UniProt P05107+P20701)
Assay: Inhibition of LFA-1 binding to ICAM-1 (LFA-1/Biotin-sICAM-1 AlphaScreen molecular assay)
Details: highest compound concentration 1 μM in 1% DMSO, 37° C., 90 minutes
From the text: Assay to Determine Inhibition of LFA-1 Binding to ICAM-1
This assay protocol is designed to study the direct antagonism, by a test compound, of the interaction of ICAM-1 with the Leukointegrin CD18/CD11a (LFA-1).
The LFA-1/Biotin-sICAM-1 molecular assay measures the ability of test compounds to inhibit binding of LFA-1 to Biotinylated-sICAM using AlphaScreen technology (Ref: Wilson, J, Rossi, C P, Carboni, S, Fremaux, C, Perrin, D, Soto, C, Kosco-Vilbois, M, and Scheer, A: A Homogeneous 384-Well High-Throughput Binding Assay for a TNF Receptor Using Alphascreen Technology. J Biomol Screen 2003; 8:522-532) that uses TS2/4(anti-LFA-1)-custom conjugated AlphaLisa acceptor beads and streptavidin-coated donor beads from PerkinElmer. The assay was performed in white OptiPlates-384 in a volume of 60 μL using assay buffer (Dulbecco's PBS containing calcium and magnesium, 2 mM MgCl2, 0.1 mM PMSF, 0.1% BSA, pH 7.1). To each well, Biotin-sICAM was added followed by purified LFA-1 (in buffer of 50 mM triethylamine, 150 mM NaCl, 1% beta octylglucoside, 2 mM MgCl2 neutralized to pH with 1M Tris-HCl, pH 7.5). For compound testing, compound was added in 5 uL to the above in 25 uL. LFA-1 and Biotin-sICAM-1 were used at concentrations that would yield a signal to background ratio of 8-10. The highest concentration of compound was 1 μM in 1% DMSO. Positive controls were wells without compound containing LFA-1, while blanks were wells without both compound and LFA-1. Plates were mixed and incubated at 37° C. for 90 minutes. This was followed by addition of 15 μL/well TS2/4-congugated acceptor beads diluted in PBS containing 0.1% BSA for a final concentration of 10 μg/mL. The plates were mixed and incubated in the dark for 30 minutes at room temperature followed by addition of 15 μL/well streptavidin-coated donor beads diluted in PBS containing 0.1% BSA at a final concentration of 15 μg/mL. The plates were mixed and incubated in the dark for 60 minutes at room temperature and then read on an EnVision Multilabel Reader using AlphaScreen 384-well OptiPlate protocol.

Sequence of LFA-1 binding to ICAM-1 (P20701 26-1170): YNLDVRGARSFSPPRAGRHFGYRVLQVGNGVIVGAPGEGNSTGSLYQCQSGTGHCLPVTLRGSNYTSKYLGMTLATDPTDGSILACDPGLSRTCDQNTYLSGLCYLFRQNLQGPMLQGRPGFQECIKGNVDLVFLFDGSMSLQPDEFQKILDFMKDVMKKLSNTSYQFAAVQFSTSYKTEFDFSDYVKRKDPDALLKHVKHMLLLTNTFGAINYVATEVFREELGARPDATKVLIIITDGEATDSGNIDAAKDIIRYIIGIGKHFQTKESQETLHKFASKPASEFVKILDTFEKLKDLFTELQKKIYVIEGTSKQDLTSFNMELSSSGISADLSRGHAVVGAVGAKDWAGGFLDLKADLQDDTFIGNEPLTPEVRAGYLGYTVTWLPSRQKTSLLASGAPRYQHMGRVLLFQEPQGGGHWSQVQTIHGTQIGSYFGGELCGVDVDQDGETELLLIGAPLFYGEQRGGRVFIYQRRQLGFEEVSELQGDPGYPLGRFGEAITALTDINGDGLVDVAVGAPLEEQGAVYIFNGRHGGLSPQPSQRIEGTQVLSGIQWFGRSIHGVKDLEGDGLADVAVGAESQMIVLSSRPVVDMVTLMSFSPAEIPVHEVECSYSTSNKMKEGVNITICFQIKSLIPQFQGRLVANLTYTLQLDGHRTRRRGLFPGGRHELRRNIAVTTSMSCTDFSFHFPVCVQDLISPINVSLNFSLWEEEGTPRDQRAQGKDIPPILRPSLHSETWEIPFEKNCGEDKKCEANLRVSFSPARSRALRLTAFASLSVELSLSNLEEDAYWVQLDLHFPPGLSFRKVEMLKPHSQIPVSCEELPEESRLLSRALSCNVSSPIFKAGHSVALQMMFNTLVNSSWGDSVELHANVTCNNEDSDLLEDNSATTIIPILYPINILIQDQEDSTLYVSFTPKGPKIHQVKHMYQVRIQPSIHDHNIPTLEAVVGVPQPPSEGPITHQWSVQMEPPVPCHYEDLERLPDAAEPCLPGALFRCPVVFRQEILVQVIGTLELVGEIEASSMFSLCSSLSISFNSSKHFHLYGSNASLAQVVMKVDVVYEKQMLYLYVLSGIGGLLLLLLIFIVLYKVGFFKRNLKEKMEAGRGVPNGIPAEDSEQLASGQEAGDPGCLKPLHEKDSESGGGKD
Sequence of LFA-1 binding to ICAM-1 (P05107 23-769): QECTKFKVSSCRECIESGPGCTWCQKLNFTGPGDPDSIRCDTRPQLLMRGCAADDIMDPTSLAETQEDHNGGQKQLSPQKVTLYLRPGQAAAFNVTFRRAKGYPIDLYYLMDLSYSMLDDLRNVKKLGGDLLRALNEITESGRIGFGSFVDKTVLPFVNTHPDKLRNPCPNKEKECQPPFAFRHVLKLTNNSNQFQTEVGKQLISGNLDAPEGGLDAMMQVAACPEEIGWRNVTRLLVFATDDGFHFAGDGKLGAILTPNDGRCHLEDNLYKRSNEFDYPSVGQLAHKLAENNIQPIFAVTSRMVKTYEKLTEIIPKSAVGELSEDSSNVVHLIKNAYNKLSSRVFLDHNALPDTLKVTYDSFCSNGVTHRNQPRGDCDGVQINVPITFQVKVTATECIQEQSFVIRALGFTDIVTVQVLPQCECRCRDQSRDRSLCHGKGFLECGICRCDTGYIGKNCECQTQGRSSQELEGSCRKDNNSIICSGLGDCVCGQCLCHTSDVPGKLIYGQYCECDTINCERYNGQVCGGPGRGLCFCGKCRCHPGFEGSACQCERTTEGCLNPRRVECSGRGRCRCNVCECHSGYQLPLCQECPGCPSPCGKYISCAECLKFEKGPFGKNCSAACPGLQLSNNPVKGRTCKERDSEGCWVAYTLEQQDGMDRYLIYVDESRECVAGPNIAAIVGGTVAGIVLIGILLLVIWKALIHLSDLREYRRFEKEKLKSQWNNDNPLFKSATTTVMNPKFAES

CN(C)C1CCN(C(=O)c2ccnc(C3(NC(=O)C4(NC(=O)c5cnc6n5[C@](C)(Cc5ccc(C#N)cc5)C(=O)N6c5cc(Cl)cc(Cl)c5)CC4)CC3)c2)C1 (some centres unmarked) [Compound 1]
IC50: 1.4 nM

C[C@@]1(Cc2ccc(C#N)cc2)C(=O)N(c2cc(Cl)cc(Cl)c2)c2ncc(C(=O)NC3(C(=O)NC4(c5ccc(C(=O)NCc6ccco6)cn5)CC4)CC3)n21 [compound 3]
IC50: 0.29 nM

C[C@@]1(Cc2ccc(C#N)cc2)C(=O)N(c2cc(Cl)cc(Cl)c2)c2ncc(C(=O)NC3(C(=O)NC4(c5cc(C(=O)NCCO)ccn5)CC4)CC3)n21 [compound 4]
IC50: 0.92 nM

C[C@@]1(Cc2ccc(C#N)cc2)C(=O)N(c2cc(Cl)cc(Cl)c2)c2ncc(C(=O)NC3(C(=O)NC4(c5ccc(C(=O)N6CC[C@@H](O)C6)cn5)CC4)CC3)n21 [compound 5]
IC50: 0.59 nM

C[C@@]1(Cc2ccc(C#N)cc2)C(=O)N(c2cc(Cl)cc(Cl)c2)c2ncc(C(=O)NC3(C(=O)NC4(c5cc(C(=O)NCCc6ccccn6)ccn5)CC4)CC3)n21 [compound 6]
IC50: 0.82 nM

C[C@@]1(Cc2ccc(C#N)cc2)C(=O)N(c2cc(Cl)cc(Cl)c2)c2ncc(C(=O)NC3(C(=O)NC4(c5cc(C(=O)N6CCC(CO)CC6)ccn5)CC4)CC3)n21 [compound 7]
IC50: 1.4 nM

C[C@@]1(Cc2ccc(C#N)cc2)C(=O)N(c2cc(Cl)cc(Cl)c2)c2ncc(C(=O)NC3(C(=O)NC4(c5ccc(C(=O)N6CCC[C@H]6C(N)=O)cn5)CC4)CC3)n21 [compound 8]
IC50: 1.6 nM

C[C@@]1(Cc2ccc(C#N)cc2)C(=O)N(c2cc(Cl)cc(Cl)c2)c2ncc(C(=O)NC3(C(=O)NC4(c5ccc(C(=O)N6CCCCC6)cn5)CC4)CC3)n21 [compound 9]
IC50: 1.8 nM

C[C@H](NC(=O)c1ccnc(C2(NC(=O)C3(NC(=O)c4cnc5n4[C@](C)(Cc4ccc(C#N)cc4)C(=O)N5c4cc(Cl)cc(Cl)c4)CC3)CC2)c1)c1ccccc1 [compound 10]
IC50: 6.2 nM

C[C@@]1(Cc2ccc(C#N)cc2)C(=O)N(c2cc(Cl)cc(Cl)c2)c2ncc(C(=O)NC3(C(=O)NC4(c5cccc(C(=O)N6CCCC6)n5)CC4)CC3)n21 [compound 11]
IC50: 3.4 nM

CC(NC(=O)c1cccc(C2(NC(=O)C3(NC(=O)c4cnc5n4[C@](C)(Cc4ccc(C#N)cc4)C(=O)N5c4cc(Cl)cc(Cl)c4)CC3)CC2)n1)c1ccccn1 (some centres unmarked) [compound 12]
IC50: 8.5 nM

C[C@@]1(Cc2ccc(C#N)cc2)C(=O)N(c2cc(Cl)cc(Cl)c2)c2ncc(C(=O)NC3(C(=O)NC4(c5ccc(C(=O)NCC6CC6)cn5)CC4)CC3)n21 [compound 13]
IC50: 0.44 nM

C[C@@]1(Cc2ccc(C#N)cc2)C(=O)N(c2cc(Cl)cc(Cl)c2)c2ncc(C(=O)NC3(C(=O)NC4(c5ccc(C(=O)NCC(N)=O)cn5)CC4)CC3)n21 [compound 14]
IC50: 0.27 nM

CC(=O)NC1CCN(C(=O)c2cccc(C3(NC(=O)C4(NC(=O)c5cnc6n5[C@](C)(Cc5ccc(C#N)cc5)C(=O)N6c5cc(Cl)cc(Cl)c5)CC4)CC3)n2)C1 (some centres unmarked) [compound 15]
IC50: 1.5 nM

C[C@@]1(Cc2ccc(C#N)cc2)C(=O)N(c2cc(Cl)cc(Cl)c2)c2ncc(C(=O)NC3(C(=O)NC4(c5cccc(C(=O)N6CCCCC6)n5)CC4)CC3)n21 [compound 16]
IC50: 12 nM

C[C@@H](CO)NC(=O)c1ccnc(C2(NC(=O)C3(NC(=O)c4cnc5n4[C@](C)(Cc4ccc(C#N)cc4)C(=O)N5c4cc(Cl)cc(Cl)c4)CC3)CC2)c1 [compound 17]
IC50: 0.18 nM

C[C@@]1(Cc2ccc(C#N)cc2)C(=O)N(c2cc(Cl)cc(Cl)c2)c2ncc(C(=O)NC3(C(=O)NC4(c5cccc(C(=O)N6CCC(CO)CC6)n5)CC4)CC3)n21 [compound 18]
IC50: 1.8 nM

CN(CCO)C(=O)c1cccc(C2(NC(=O)C3(NC(=O)c4cnc5n4[C@](C)(Cc4ccc(C#N)cc4)C(=O)N5c4cc(Cl)cc(Cl)c4)CC3)CC2)n1 [compound 20]
IC50: 1 nM

C[C@@]1(Cc2ccc(C#N)cc2)C(=O)N(c2cc(Cl)cc(Cl)c2)c2ncc(C(=O)NC3(C(=O)NC4(c5ccc(C(=O)NCc6cccnc6)cn5)CC4)CC3)n21 [compound 21]
IC50: 0.81 nM

CC(=O)N1CCN(C(=O)c2cccc(C3(NC(=O)C4(NC(=O)c5cnc6n5[C@](C)(Cc5ccc(C#N)cc5)C(=O)N6c5cc(Cl)cc(Cl)c5)CC4)CC3)n2)CC1 [compound 22]
IC50: 2.1 nM

C[C@@]1(Cc2ccc(C#N)cc2)C(=O)N(c2cc(Cl)cc(Cl)c2)c2ncc(C(=O)NC3(C(=O)NC4(c5cccc(C(=O)N6CCCC(C(N)=O)C6)n5)CC4)CC3)n21 (some centres unmarked) [compound 23]
IC50: 2.6 nM

C[C@@]1(Cc2ccc(C#N)cc2)C(=O)N(c2cc(Cl)cc(Cl)c2)c2ncc(C(=O)NC3(C(=O)NC4(c5cc(C(=O)NCc6ccccc6)ccn5)CC4)CC3)n21 [compound 24]
IC50: 4.1 nM

C[C@@]1(Cc2ccc(C#N)cc2)C(=O)N(c2cc(Cl)cc(Cl)c2)c2ncc(C(=O)NC3(C(=O)NC4(c5cccc(C(=O)NCc6ccccc6)n5)CC4)CC3)n21 [compound 25]
IC50: 32 nM

C[C@@]1(Cc2ccc(C#N)cc2)C(=O)N(c2cc(Cl)cc(Cl)c2)c2ncc(C(=O)NC3(C(=O)NC4(c5cccc(C(=O)NCc6ccncc6)n5)CC4)CC3)n21 [compound 26]
IC50: 5.2 nM

CC(CO)NC(=O)c1ccc(C2(NC(=O)C3(NC(=O)c4cnc5n4[C@](C)(Cc4ccc(C#N)cc4)C(=O)N5c4cc(Cl)cc(Cl)c4)CC3)CC2)nc1 (some centres unmarked) [compound 27]
IC50: 0.74 nM

C[C@@]1(Cc2ccc(C#N)cc2)C(=O)N(c2cc(Cl)cc(Cl)c2)c2ncc(C(=O)NC3(C(=O)NC4(c5cccc(C(=O)N6CCC[C@H]6C(N)=O)n5)CC4)CC3)n21 [compound 28]
IC50: 2.5 nM

C[C@@]1(Cc2ccc(C#N)cc2)C(=O)N(c2cc(Cl)cc(Cl)c2)c2ncc(C(=O)NC3(C(=O)NC4(c5ccc(C(=O)N6CCCC(CO)C6)cn5)CC4)CC3)n21 (some centres unmarked) [compound 29]
IC50: 0.43 nM

C[C@@]1(Cc2ccc(C#N)cc2)C(=O)N(c2cc(Cl)cc(Cl)c2)c2ncc(C(=O)NC3(C(=O)NC4(c5cccc(C(=O)NCCO)n5)CC4)CC3)n21 [compound 30]
IC50: 0.91 nM

CNC(=O)c1ccnc(C2(NC(=O)C3(NC(=O)c4cnc5n4[C@](C)(Cc4ccc(C#N)cc4)C(=O)N5c4cc(Cl)cc(Cl)c4)CC3)CC2)c1 [compound 31]
IC50: 0.67 nM

C[C@@]1(Cc2ccc(C#N)cc2)C(=O)N(c2cc(Cl)cc(Cl)c2)c2ncc(C(=O)NC3(C(=O)NC4(c5cc(C(=O)NCCc6ccccc6)ccn5)CC4)CC3)n21 [compound 32]
IC50: 4 nM

C[C@H](NC(=O)c1ccc(C2(NC(=O)C3(NC(=O)c4cnc5n4[C@](C)(Cc4ccc(C#N)cc4)C(=O)N5c4cc(Cl)cc(Cl)c4)CC3)CC2)nc1)c1ccccc1 [compound 33]
IC50: 2.7 nM

CN(CCO)C(=O)c1ccnc(C2(NC(=O)C3(NC(=O)c4cnc5n4[C@](C)(Cc4ccc(C#N)cc4)C(=O)N5c4cc(Cl)cc(Cl)c4)CC3)CC2)c1 [compound 34]
IC50: 0.7 nM

C[C@@]1(Cc2ccc(C#N)cc2)C(=O)N(c2cc(Cl)cc(Cl)c2)c2ncc(C(=O)NC3(C(=O)NC4(c5ccc(C(=O)NCCO)cn5)CC4)CC3)n21 [compound 35]
IC50: 0.39 nM

C[C@@]1(Cc2ccc(C#N)cc2)C(=O)N(c2cc(Cl)cc(Cl)c2)c2ncc(C(=O)NC3(C(=O)NC4(c5ccc(C(=O)NCc6ccccn6)cn5)CC4)CC3)n21 [compound 36]
IC50: 0.25 nM

CN1CCN(C(=O)c2ccc(C3(NC(=O)C4(NC(=O)c5cnc6n5[C@](C)(Cc5ccc(C#N)cc5)C(=O)N6c5cc(Cl)cc(Cl)c5)CC4)CC3)nc2)CC1 [compound 37]
IC50: 2.4 nM
